{"source": "patent US5693628A", "about": "“11-benzaldoxime-estra-diene derivatives, methods for their production and pharmaceuticals containing these compounds” (priority 1994, dated 1997)", "key": {"progesterone receptor": {"biological_target": "T1, progesterone receptor (Oryctolagus cuniculus, UniProt P06186)", "T1 construct": "uterine cytosol of the estradiol-primed rabbit; from tissue; host or cells: uterus (cytosol) of estradiol-primed rabbit", "T1 sequence (P06186 1-930)": "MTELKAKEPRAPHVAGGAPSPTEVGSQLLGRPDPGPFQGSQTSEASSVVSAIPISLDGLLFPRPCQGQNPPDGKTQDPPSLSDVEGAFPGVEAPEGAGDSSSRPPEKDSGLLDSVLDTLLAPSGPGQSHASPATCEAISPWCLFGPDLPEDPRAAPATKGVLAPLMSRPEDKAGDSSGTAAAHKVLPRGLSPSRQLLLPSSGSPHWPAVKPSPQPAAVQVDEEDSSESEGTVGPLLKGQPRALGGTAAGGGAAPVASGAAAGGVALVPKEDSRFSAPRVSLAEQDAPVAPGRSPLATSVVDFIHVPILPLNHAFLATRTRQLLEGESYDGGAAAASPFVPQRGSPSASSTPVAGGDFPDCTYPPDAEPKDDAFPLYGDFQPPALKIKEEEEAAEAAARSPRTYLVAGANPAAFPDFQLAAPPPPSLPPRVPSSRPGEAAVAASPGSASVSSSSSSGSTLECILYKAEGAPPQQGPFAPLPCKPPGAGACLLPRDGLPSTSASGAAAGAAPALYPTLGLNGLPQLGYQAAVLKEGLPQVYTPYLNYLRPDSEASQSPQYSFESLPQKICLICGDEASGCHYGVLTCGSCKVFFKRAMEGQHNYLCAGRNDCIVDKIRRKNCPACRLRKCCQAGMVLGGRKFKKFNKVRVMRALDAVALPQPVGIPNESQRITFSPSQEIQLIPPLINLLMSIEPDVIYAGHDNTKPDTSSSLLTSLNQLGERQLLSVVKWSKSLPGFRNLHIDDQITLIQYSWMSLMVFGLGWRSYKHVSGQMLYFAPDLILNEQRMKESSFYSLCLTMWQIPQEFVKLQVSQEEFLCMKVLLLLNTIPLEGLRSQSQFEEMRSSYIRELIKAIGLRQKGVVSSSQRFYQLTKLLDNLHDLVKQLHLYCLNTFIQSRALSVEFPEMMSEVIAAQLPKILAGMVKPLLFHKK", "assay": "relative molar bonding affinity to progesterone receptor (competitive bonding)", "assay_type": "binding", "details": "progesterone = 100%; uterine cytosol of estradiol-primed rabbit; 3H-ORG 2058, 5 nM; 18 h, 0-4° C.", "description": "(§1) Measurement of bonding affinity for receptors\n(§2) Receptor bonding affinity was determined by competitive bonding of a specifically binding ^3 H labelled hormone (tracer) and the compound to be tested to receptors in the cytosol from animal target organs. It was tried to obtain receptor saturation and a balanced reaction. The following incubation conditions were selected:\nProgesterone receptor: uterine cytosol of the estradiol-primed rabbit, kept at -30° C. in TED buffer (20 mM Tris/HCl, pH 7.4; 1 mM ethylene diamine tetraacetate, 2 mM dithio threitol) with 250 mM of saccharose.\n(§3) After an incubation period of 18 hours at 0°-4° C., bonded and free steroid was separated by mixing in active carbon/dextrane (1%/0.1%), centrifuging off and measuring the bonded ^3 H activity in the supernatant.\nThe IC50 for the compound to be tested and for the reference substance were determined from measurements in series of concentrations."}, "oestrogen receptor": {"biological_target": "T2, oestrogen receptor (Oryctolagus cuniculus, UniProt G1SML6)", "T2 construct": "uterine cytosol of the immature rabbit; from tissue; host or cells: uterus (cytosol) of immature rabbit", "T2 sequence (G1SML6 1-598)": "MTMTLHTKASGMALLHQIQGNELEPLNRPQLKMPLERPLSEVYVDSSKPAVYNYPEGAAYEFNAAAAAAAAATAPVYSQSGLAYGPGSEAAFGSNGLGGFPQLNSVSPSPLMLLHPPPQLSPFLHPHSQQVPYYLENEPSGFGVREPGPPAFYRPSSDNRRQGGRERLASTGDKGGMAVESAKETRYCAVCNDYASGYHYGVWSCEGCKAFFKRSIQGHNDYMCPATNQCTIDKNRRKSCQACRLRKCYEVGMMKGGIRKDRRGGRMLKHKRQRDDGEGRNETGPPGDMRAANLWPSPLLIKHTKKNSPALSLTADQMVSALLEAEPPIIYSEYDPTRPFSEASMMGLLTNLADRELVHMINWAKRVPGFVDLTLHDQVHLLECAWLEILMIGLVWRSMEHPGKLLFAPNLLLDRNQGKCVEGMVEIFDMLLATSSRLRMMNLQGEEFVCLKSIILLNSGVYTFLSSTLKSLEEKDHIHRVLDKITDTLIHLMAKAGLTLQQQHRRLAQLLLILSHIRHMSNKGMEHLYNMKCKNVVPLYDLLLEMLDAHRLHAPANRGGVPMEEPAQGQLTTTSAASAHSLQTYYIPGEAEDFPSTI", "assay": "relative molar bonding affinity to oestrogen receptor (competitive bonding)", "assay_type": "binding", "details": "estradiol = 100%; uterine cytosol of immature rabbit; 3H-ethinyl estradiol, 3 nM; 18 h, 0-4° C.", "description": "as §1, §2\nOestrogen receptor: uterine cytosol of the immature rabbit, kept at -30° C. in TED buffer with 250 mM of saccharose. Tracer: ^3 H-ethinyl estradiol, 3 nM; reference substance: 17β-estradiol.\nas §3\nThe IC50 for the compound to be tested and for the reference substance were determined from measurements in series of concentrations. The quotient of both values (×100%) is the relative molar bonding affinity."}, "[1]": {"tested_on": "uterine weight in cyclic guinea pigs", "assay": "Influence on uterine weight in cyclic guinea pigs", "assay_type": "in vivo, guinea pig", "excerpt": "FIG. 1. is a chart showing a comparison of the influence on uterine weight in cyclic guineau pigs when treated with the antigestagen agents RU 486, a control (the vehicle), and a compound of the present invention, J 867 (as prepared in accordance with Example 1).\nFIG. 1 compares the influence of antigestagen treatment of cyclic guinea pigs on uterine weights for J 867 and RU 486.\nTreatment of female guinea pigs with antigestagen\nTreatment of adult female guinea pigs from day 10 to day 18 of the cycle (autopsy). Administration of the specified doses using subcutaneous osmotic pumps (Type 2 ML1 ALZET). Vehicle: […] propylene glycol/24 hrs."}}, "data": [{"compound": "COC[C@]1(OC)CC[C@H]2[C@@H]3CCC4=CC(=O)CCC4=C3[C@@H](c3ccc(C=NO)cc3)C[C@@]21C", "note": "[Example 1, 11β-[4-(hydroximinomethyl)phenyl]-17β-methoxy-17α-methoxymethyl-estra-4,9-diene-3-on]", "values": [{"measurement": "relative molar bonding affinity (RBA) to progesterone receptor", "setting": "progesterone receptor", "result": 302, "unit": "%"}, {"measurement": "relative molar bonding affinity (RBA) to oestrogen rec.", "setting": "oestrogen receptor", "result": "< 0.1", "unit": "%"}, {"measurement": "inhibition of uterine weights of cyclic guinea pigs, all doses", "setting": "[1]; 1, 3, and 6 mg/24 hrs, s.c. osmotic pump, day 10 to 18 of cycle", "result": "inhibited uterine weights to a statistically significant extent"}, {"measurement": "uterine weights in the anovulatorial cycle in guinea pigs", "setting": "[1]; doses at which RU 486 increases uterine weights, compared with control animals", "result": "significantly reduced uterine weights"}]}]}
